Each structure is given as a SMILES string. Structures can show the parent of a compound that is named as a salt.

The target of one test is T1, protein farnesyltransferase (Rattus norvegicus, UniProt Q02293+Q04631).
T1 construct: Rat brain protein farnesyltransferase activity is measured; from tissue; host or cells: rat brain; purified according to Reiss et al., Cell 62:81-88 (1990), steps one through three
As to the kind of experiment: in vitro inhibition of protein farnesyltransferase (scintillation proximity assay, biotin-K Ras B fragment). Format: biochemical. To be noted: at 1 × 10^-5 M. The method, boiled down: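 Scintillation proximity read-out of farnesylation, using a biotinylated K Ras B fragment (0.1 mM final) in place of biotin-lamin. Enzyme purified from rat brain; results given as % inhibition.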
A general note: SPA uses beads or plates that emit light when radiolabelled molecules are held near them.
`CSCC[C@H](NC(=O)c1ccc(CNc2ccc(C3CCCCC3)cc2)cc1-c1ccccc1)C(=O)O` [Example 699] had an inhibition at 10 µM of 74%.

`CSCC[C@H](NC(=O)c1ccc(CNc2ccc3ncccc3c2)cc1-c1ccccc1)C(=O)O` [Example 708] yielded an inhibition at 10 µM of 76%.

As to `CSCC[C@H](NC(=O)c1ccc(CNc2ccc(O)cc2)cc1-c1ccccc1)C(=O)O` [Example 689], the inhibition at 10 µM amounted to 73%.

The molecule `CSCC[C@H](NC(=O)c1ccc(CNc2cc[nH]n2)cc1-c1ccccc1)C(=O)O` [Example 370] returned an inhibition at 10 µM of 86%.

Staying with this test, now noted: at 1 × 10^-6 M.
As for `CSCC[C@H](NC(=O)c1ccc(COCc2ccoc2)cc1-c1ccccc1C)C(=O)O` [Example 530], the “% inhibition of farnesyltransferase” value is 94%.

On to `CSCC[C@H](NC(=O)c1ccc(C=CCc2ccc3ccccc3c2)cc1-c1ccccc1C)C(=O)O` [Example 496], for which the “% inhibition of farnesyltransferase” value worked out at 93%.

Consider `CSCC[C@H](NC(=O)c1ccc(CN2CCC(OCc3ccccc3)C2)cc1-c1ccccc1C)C(=O)O` (stereo partly drawn) [Example 988], for which the “% inhibition of farnesyltransferase” value amounted to 92%.

Take `CSCC[C@H](NC(=O)c1ccc(/C=C/c2cccc3ccccc23)cc1-c1ccccc1C)C(=O)O` [Example 466]: the “% inhibition of farnesyltransferase” value was 93%.

As for `CSCC[C@H](NC(=O)c1ccc(CN2CCCC(OCc3ccccc3)C2)cc1-c1ccccc1C)C(=O)O` (stereo partly drawn) [Example 989], the “% inhibition of farnesyltransferase” value was 88%.

Consider `Cc1ccccc1-c1cc(CN(C)C(C)(C)Cc2ccccc2)ccc1C(=O)N[C@@H](CCS(C)(=O)=O)C(=O)O` [Example 313], for which the “% inhibition of farnesyltransferase” value came out at 94%.

In the case of `COc1ccc(CCNS(=O)(=O)c2ccc(C(=O)N[C@@H](CCSC)C(=O)O)c(-c3ccccc3C)c2)cc1OC` [Example 776], the “% inhibition of farnesyltransferase” value is on record as 36%.

In the case of `CSCC[C@H](NC(=O)c1ccc(COCCCC2CCCCC2)cc1-c1ccccc1C)C(=O)O` [Example 405], the “% inhibition of farnesyltransferase” value worked out at 98%.

`CSCC[C@H](NC(=O)c1ccc(CCCC(=O)c2ccc3ccccc3c2)cc1-c1ccccc1C)C(=O)O` [Example 473]: the “% inhibition of farnesyltransferase” value came to 96%.

On to `CSCC[C@H](NC(=O)c1ccc(C=Cc2ccccc2Cc2ccccc2)cc1-c1ccccc1C)C(=O)[O-].[Li+]` [Example 457], for which the “% inhibition of farnesyltransferase” value worked out at 92%.

Regarding `CSCC[C@H](NC(=O)c1ccc(CN(C)C(C)(C)Cc2ccccc2)cc1-c1ccccc1C)C(=O)O` [Example 309], the “% inhibition of farnesyltransferase” value was found to be 98%.

As to `CSCC[C@H](NC(=O)c1ccc(CN2CCC[C@H]2COCc2ccccc2)cc1-c1ccccc1C)C(=O)O` [Example 824], the “% inhibition of farnesyltransferase” value was 90%.

For the molecule `CSCC[C@H](NC(=O)c1ccc(Sc2ccc3ccccc3c2)cc1-c1ccccc1C)C(=O)O` [Example 497], the “% inhibition of farnesyltransferase” value was 94%.

The same test, now with this note: at 1 × 10^-6 M; read-out: % inhibition of farnesyltransferase.
With `CSCC[C@H](NC(=O)c1ccc(CN(C(CC2CCCCC2)CC2CCCCC2)S(=O)(=O)c2ccccc2)cc1-c1ccccc1C)C(=O)O` [Example 911, N-[4-(N-Benzenesulfoyl-N-(1,3-Dicyclohexylpropan-2-yl)aminomethyl)-2-(2-methylphenyl)-benzoyl]methionine], the inhibition at 1 µM turned out to be 65%.

As for `CSCC[C@H](NC(=O)c1ccc(CNc2ccc(OC(F)(F)F)cc2)cc1-c1ccccc1)C(=O)O` [Example 691], the inhibition at 1 µM was 34%.

Consider `CSCC[C@H](NC(=O)c1ccc(CN(C)C(C)(C)Cc2ccccc2)cc1-c1ccccc1C)C(=O)O` [Example 982, N-[4-(N-Methyl-N-(1,1-dimethyl-2-phenylethyl)aminomethyl)-2-(2-methylphenyl)-benzoyl]methionine lithium salt], for which the inhibition at 1 µM worked out at 64%.

As for `CSCC[C@H](NC(=O)c1ccc(CNc2ccc(N3CCCCC3)cc2)cc1-c1ccccc1)C(=O)O` [Example 697], the inhibition at 1 µM stood at 39%.

For `CSCC[C@H](NC(=O)c1ccc(CN(Cc2ccccc2)Cc2ccccc2)cc1-c1ccccc1C)C(=O)O` [Example 512, N-[4-N,N-dibenzylaminomethyl-2-(2-methylphenyl)benzoyl]methionine lithium salt], the inhibition at 1 µM stood at 94%.

Turning to `CSCC[C@H](NC(=O)c1ccc(NC(=O)c2cnccc2C(F)(F)F)cc1-c1ccccc1C)C(=O)O` [Example 481, N-[4-N-(4-trifluoromethylnicotinoyl)amino-2-(2-methylphenyl)benzoyl]methionine lithium salt], the inhibition at 1 µM was determined as 95%.

Regarding `CSCC[C@H](NC(=O)c1ccc(CNCCSc2ccccc2)cc1-c1ccccc1)C(=O)O` [Example 667], the inhibition at 1 µM was found to be 83%.

As for `CCOC(=O)c1ccc(NCc2ccc(C(=O)N[C@@H](CCSC)C(=O)O)c(-c3ccccc3)c2)cc1` [Example 646], the inhibition at 1 µM turned out to be 58%.

As for `CSCC[C@H](NC(=O)c1ccc(CN(Cc2ccccc2)c2ccccc2)cc1-c1ccccc1C)C(=O)O` [Example 406, 4-(N-benzyl-N-phenyl)-aminomethyl-2-(2-methylphenyl)benzoylmethionine], the inhibition at 1 µM amounted to 95%.

With `CSCC[C@H](NC(=O)c1ccc(CNc2cccc(C(N)=O)c2)cc1-c1ccccc1)C(=O)O` [Example 682], the inhibition at 1 µM was found to be 31%.

As to `COc1ccc(CC(=O)Nc2ccc(C(=O)N[C@@H](CCSC)C(=O)O)c(-c3ccccc3C)c2)cc1` [Example 542, N-[4-N-(4'-methoxyphenylacetyl)amino-2-(2-methylphenyl)benzoyl]methionine lithium salt], the inhibition at 1 µM was 67%.

`CSCC[C@H](NC(=O)c1ccc(CNC(CC2CCCCC2)C(O)C(O)CC(C)C)cc1-c1ccccc1C)C(=O)O` (stereo partly drawn) [Example 528]: the inhibition at 1 µM turned out to be 99%.

`CNCC(=O)Nc1ccc(C(=O)N[C@@H](CCSC)C(=O)O)c(-c2ccccc2)c1` [Example 749]: the inhibition at 1 µM turned out to be 84%.

The test is the same for the next values; noted with them: at 1 × 10^-7 M.
`CSCC[C@H](NC(=O)c1ccc(COCC2CCCCC2)cc1-c1ccccc1C)C(=O)[O-].[Li+]` [Example 585]: the “% inhibition of farnesyltransferase” value was 96%.

Turning to `CSCC[C@H](NC(=O)c1ccc(CSc2ncnc3[nH]ncc23)cc1-c1ccccc1C)C(=O)O` [Example 746], the “% inhibition of farnesyltransferase” value was found to be 84%.

With `CSCC[C@H](NC(=O)c1ccc(COCc2ccc(-c3ccc(C=O)cc3)o2)cc1-c1ccccc1C)C(=O)[O-].[Li+]` [Example 448], the “% inhibition of farnesyltransferase” value is 92%.

As to `COc1ccc(-c2ccc(COCc3ccc(C(=O)N[C@@H](CCSC)C(=O)[O-])c(-c4ccccc4C)c3)o2)cc1.[Li+]` [Example 446], the “% inhibition of farnesyltransferase” value is 91%.

Turning to `CSCC[C@H](NC(=O)c1ccc(COCc2ccccc2)cc1-c1ccccc1C)C(=O)[O-].[Li+]` [Example 571], the “% inhibition of farnesyltransferase” value is 88%.

In the case of `CSCC[C@H](NC(=O)c1ccc(COCc2ccc(Br)o2)cc1-c1ccccc1C)C(=O)[O-].[Li+]` [Example 434], the “% inhibition of farnesyltransferase” value is on record as 93%.

Turning to `CSCC[C@H](NC(=O)c1ccc(CSc2nc3ccccc3c(=O)[nH]2)cc1-c1ccccc1C)C(=O)O` [Example 745], the “% inhibition of farnesyltransferase” value is 93%.

The test is the same for the next values; noted with them: at 1 × 10^-7 M; read-out: % inhibition of farnesyltransferase.
Consider `CSCC[C@H](NC(=O)c1ccc(CN[C@@H](CO)CC2CCCCC2)cc1-c1ccccc1C)C(=O)O` [Example 618, N-[4-(3-cyclohexylpropan-1-ol-2-ylaminomethyl)-2-(2-methylphenyl)benzoyl]methionine Trifluoroacetate Salt], for which the inhibition at 0.1 µM is 89%.

Regarding `CCCCN(CCCC)C(=O)CNCc1ccc(C(=O)N[C@@H](CCSC)C(=O)O)c(-c2ccccc2C)c1` [Example 912, N-[4-(N-(N,N-dibutylacetamido)aminomethyl)-2-(2-methylphenyl)benzoyl]methionine], the inhibition at 0.1 µM is 85%.

With `CSCC[C@H](NC(=O)c1ccc(CN[C@H](CCCC(C)C)CC2CCCCC2)cc1-c1ccccc1C)C(=O)O` [Example 527, N-[4-N-(1-Cyclohexyl-6-methylheptan-2-yl)aminomethyl-2-(2-methylphenyl)benzoyl]methionine lithium salt], the inhibition at 0.1 µM was 97%.

As to `CSCC[C@H](NC(=O)c1ccc(CN(c2ccccc2)S(=O)(=O)c2ccc(C)cc2)cc1-c1ccccc1C)C(=O)O` [Example 770, N-[4-N-(N-phenyl-N-toluenesulfonylaminomethyl)-2-(2-methylphenyl)benzoyl]methionine lithium salt], the inhibition at 0.1 µM stood at 91%.

The test is the same for the next values; noted with them: at 1 × 10^-8 M.
Consider `CSCC[C@H](NC(=O)c1ccc(CN2CCC[C@H]2COc2ccccc2)cc1-c1ccccc1C)C(=O)O` [Example 991], for which the “% inhibition of farnesyltransferase” value was 69%.

Take `CSCC[C@H](NC(=O)c1ccc(COC(Cc2ccccc2)c2cncs2)cc1-c1ccccc1C)C(=O)[O-].[Li+]` (stereo partly drawn) [Example 828]: the “% inhibition of farnesyltransferase” value is 87%.

The test is the same for the next values; noted with them: at 1 × 10^-8 M; read-out: % inhibition of farnesyltransferase.
In the case of `CSCC[C@H](NC(=O)c1ccc(CN(Cc2ccccc2)c2ccc(Cl)cc2)cc1-c1ccccc1C)C(=O)O` [Example 848, N-[4-N-(N-benzyl-N-(4-chlorophenyl)aminomethyl)-2-(2-methylphenyl)benzoyl]methionine lithium salt], the inhibition at 0.01 µM worked out at 87%.

Regarding `CCCCS(=O)(=O)N(CCC1CCCCC1)Cc1ccc(C(=O)N[C@@H](CCSC)C(=O)O)c(-c2ccccc2C)c1` [Example 916], the inhibition at 0.01 µM came out at 96%.

`CSCC[C@H](NC(=O)c1ccc(CN[C@H](CSc2ccccc2C)CC2CCCCC2)cc1-c1ccccc1C)C(=O)O` [Example 767, lithium salt]: the inhibition at 0.01 µM is 97%.

As for `CSCC[C@H](NC(=O)c1ccc(CN(CCC2CCCCC2)Cc2cncs2)cc1-c1ccccc1C)C(=O)O` [Example 986], the inhibition at 0.01 µM came to 95%.

Still in this test, the particulars now being: read-out: % inhibition of farnesyltransferase.
Consider `CSCC[C@H](NC(=O)c1ccc(CN(Cc2ccccc2)c2cccc([N+](=O)[O-])c2)cc1-c1ccccc1C)C(=O)O` [Example 842, N-[4-(N-benzyl-N-(3-nitrophenyl)aminomethyl)-2-(2-methylphenyl)benzoyl]methionine lithium salt], for which the inhibition at 0.01 µM was 88%.

In general, inhibition refers to the percentage by which the read-out fell short of the control.

Source of the values: patent publication US6310095A, “Inhibitors of protein isoprenyl transferases” (University of Pittsburgh, priority 1998, dated 2001).
